From PubChem BioAssay (NCI)
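The compound was tested at five concentrations on cells cultured in 96-well plates, with a 48-hour exposure period. The concentration for 50% growth inhibition is given as GI50. Definition used: TGI = concentration required for complete inhibition of growth.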

Columns and labels:
Experiment in all cases: NCI tumour cell line growth inhibition, 48 h
OVCAR-3 ovarian = system: OVCAR-3 ovarian
KM12 colon = system: KM12 colon
EKVX NSCLC = system: EKVX NSCLC
SK-MEL-28 melanoma = system: SK-MEL-28 melanoma
786-0 renal = system: 786-0 renal
TK-10 renal = system: TK-10 renal
NCI-H226 lung = system: NCI-H226 lung
SK-MEL-5 melanoma = system: SK-MEL-5 melanoma
HS 578T breast = system: HS 578T breast
OVCAR-5 ovarian = system: OVCAR-5 ovarian
HCT-116 colon = system: HCT-116 colon
SNB-19 CNS = system: SNB-19 CNS
U251 CNS = system: U251 CNS
SN12C renal = system: SN12C renal
SF-295 CNS = system: SF-295 CNS
OVCAR-8 ovarian = system: OVCAR-8 ovarian
RPMI-8226 leukemia = system: RPMI-8226 leukemia
CAKI-1 renal = system: CAKI-1 renal
IGROV1 ovarian = system: IGROV1 ovarian
SF-268 CNS = system: SF-268 CNS
MOLT-4 leukemia = system: MOLT-4 leukemia
PC-3 prostate = system: PC-3 prostate
COLO 205 colon = system: COLO 205 colon
SF-539 CNS = system: SF-539 CNS
A549 NSCLC = system: A549 NSCLC
SR leukemia = system: SR leukemia
UO-31 renal = system: UO-31 renal
UACC-62 melanoma = system: UACC-62 melanoma
DU-145 prostate = system: DU-145 prostate
MCF7 breast = system: MCF7 breast
SK-MEL-2 melanoma = system: SK-MEL-2 melanoma
LOX IMVI melanoma = system: LOX IMVI melanoma
HOP-62 NSCLC = system: HOP-62 NSCLC
HCT-15 colon = system: HCT-15 colon
MDA-MB-231 breast = system: MDA-MB-231 breast
SK-OV-3 ovarian = system: SK-OV-3 ovarian
HL-60(TB) leukemia = system: HL-60(TB) leukemia
OVCAR-4 ovarian = system: OVCAR-4 ovarian
SNB-75 CNS = system: SNB-75 CNS
SW-620 colon = system: SW-620 colon
NCI-H23 lung = system: NCI-H23 lung
ACHN renal = system: ACHN renal
HCC-2998 colon = system: HCC-2998 colon
M14 melanoma = system: M14 melanoma
A498 renal = system: A498 renal
BT-549 breast = system: BT-549 breast
UACC-257 melanoma = system: UACC-257 melanoma
K-562 leukemia = system: K-562 leukemia
MDA-MB-435 = system: MDA-MB-435
NCI-H522 lung = system: NCI-H522 lung
HT29 colon = system: HT29 colon
NCI/ADR-RES ovarian = system: NCI/ADR-RES ovarian
T-47D breast = system: T-47D breast
CCRF-CEM leukemia = system: CCRF-CEM leukemia
HOP-92 NSCLC = system: HOP-92 NSCLC
RXF 393 renal = system: RXF 393 renal
NCI-H460 lung = system: NCI-H460 lung

CC1=NN(c2nc(N)nc(COCc3nc(N)nc(N4N=C(C)CC4(C)C)n3)n2)C(C)(C)C1
TGI (OVCAR-3 ovarian): > 100 µM | TGI (KM12 colon): > 100 µM | TGI (EKVX NSCLC): > 100 µM | TGI (SK-MEL-28 melanoma): > 100 µM | TGI (786-0 renal): > 100 µM | TGI (TK-10 renal): > 100 µM | TGI (NCI-H226 lung): > 100 µM | TGI (SK-MEL-5 melanoma): > 100 µM | TGI (HS 578T breast): > 100 µM | TGI (OVCAR-5 ovarian): > 100 µM | TGI (HCT-116 colon): > 100 µM | TGI (SNB-19 CNS): > 100 µM | TGI (U251 CNS): > 100 µM | TGI (SN12C renal): > 100 µM | TGI (SF-295 CNS): > 100 µM | TGI (OVCAR-8 ovarian): > 100 µM | TGI (RPMI-8226 leukemia): > 100 µM | TGI (CAKI-1 renal): > 100 µM | TGI (IGROV1 ovarian): > 100 µM | TGI (SF-268 CNS): > 100 µM | TGI (MOLT-4 leukemia): > 100 µM | TGI (PC-3 prostate): > 100 µM | TGI (COLO 205 colon): > 100 µM | TGI (SF-539 CNS): > 100 µM | TGI (A549 NSCLC): > 100 µM | TGI (SR leukemia): > 100 µM | TGI (UO-31 renal): > 100 µM | TGI (UACC-62 melanoma): > 100 µM | TGI (DU-145 prostate): > 100 µM | TGI (MCF7 breast): > 100 µM | TGI (SK-MEL-2 melanoma): > 100 µM | TGI (LOX IMVI melanoma): > 100 µM | TGI (HOP-62 NSCLC): > 100 µM | TGI (HCT-15 colon): > 100 µM | TGI (MDA-MB-231 breast): > 100 µM | TGI (SK-OV-3 ovarian): > 100 µM | TGI (HL-60(TB) leukemia): > 100 µM | TGI (OVCAR-4 ovarian): > 100 µM | TGI (SNB-75 CNS): > 100 µM | TGI (SW-620 colon): > 100 µM | TGI (NCI-H23 lung): > 100 µM | TGI (ACHN renal): > 100 µM | TGI (HCC-2998 colon): > 100 µM | TGI (M14 melanoma): > 100 µM | TGI (A498 renal): > 100 µM | TGI (BT-549 breast): > 100 µM | TGI (UACC-257 melanoma): > 100 µM | TGI (K-562 leukemia): > 100 µM | TGI (MDA-MB-435): > 100 µM | TGI (NCI-H522 lung): > 100 µM | TGI (HT29 colon): > 100 µM | TGI (NCI/ADR-RES ovarian): > 100 µM | TGI (T-47D breast): > 100 µM | TGI (CCRF-CEM leukemia): > 100 µM | TGI (HOP-92 NSCLC): > 100 µM | TGI (RXF 393 renal): > 100 µM | TGI (NCI-H460 lung): > 100 µM

Cc1ccc(S(=O)(=O)NC2=NCCN2C(=S)SN2CCn3c2nsc3=S)cc1
GI50 (OVCAR-3 ovarian): 10.5 µM | TGI (OVCAR-3 ovarian): 27.9 µM | GI50 (KM12 colon): 16.6 µM | TGI (KM12 colon): 32.7 µM | GI50 (EKVX NSCLC): 27.7 µM | TGI (EKVX NSCLC): > 100 µM | GI50 (SK-MEL-28 melanoma): 17.2 µM | TGI (SK-MEL-28 melanoma): 32.7 µM | GI50 (786-0 renal): 19.1 µM | TGI (786-0 renal): 44.4 µM | GI50 (TK-10 renal): 11.1 µM | TGI (TK-10 renal): 24.7 µM | GI50 (NCI-H226 lung): 19.9 µM | TGI (NCI-H226 lung): 50.6 µM | GI50 (SK-MEL-5 melanoma): 21.8 µM | TGI (SK-MEL-5 melanoma): 50.3 µM | GI50 (HS 578T breast): 31.4 µM | TGI (HS 578T breast): > 100 µM | GI50 (OVCAR-5 ovarian): 20.1 µM | TGI (OVCAR-5 ovarian): 40.8 µM | GI50 (HCT-116 colon): 13.7 µM | TGI (HCT-116 colon): 28.8 µM | GI50 (SNB-19 CNS): 28.6 µM | TGI (SNB-19 CNS): 83.1 µM | GI50 (U251 CNS): 19.1 µM | TGI (U251 CNS): 39 µM | GI50 (SN12C renal): 19.4 µM | TGI (SN12C renal): 46.9 µM | GI50 (SF-295 CNS): 18.2 µM | TGI (SF-295 CNS): 50.8 µM | GI50 (OVCAR-8 ovarian): 24.3 µM | TGI (OVCAR-8 ovarian): 72.1 µM | GI50 (RPMI-8226 leukemia): 16.7 µM | TGI (RPMI-8226 leukemia): 73.2 µM | GI50 (CAKI-1 renal): 3.47 µM | TGI (CAKI-1 renal): 14.6 µM | GI50 (IGROV1 ovarian): 14.1 µM | TGI (IGROV1 ovarian): 34.6 µM | GI50 (SF-268 CNS): 32.4 µM | TGI (SF-268 CNS): 87.2 µM | GI50 (MOLT-4 leukemia): 20.6 µM | TGI (MOLT-4 leukemia): > 100 µM | GI50 (PC-3 prostate): 17.2 µM | TGI (PC-3 prostate): 51.7 µM | GI50 (COLO 205 colon): 6.62 µM | TGI (COLO 205 colon): 21.2 µM | GI50 (SF-539 CNS): 22 µM | TGI (SF-539 CNS): 52.7 µM | GI50 (A549 NSCLC): 30.4 µM | TGI (A549 NSCLC): 90.2 µM | GI50 (SR leukemia): 7.29 µM | TGI (SR leukemia): 36.6 µM | GI50 (UO-31 renal): 2.93 µM | TGI (UO-31 renal): 11 µM | GI50 (UACC-62 melanoma): 15.1 µM | TGI (UACC-62 melanoma): 32.3 µM | GI50 (DU-145 prostate): 26.4 µM | TGI (DU-145 prostate): > 100 µM | GI50 (MCF7 breast): 32.5 µM | TGI (MCF7 breast): > 100 µM | GI50 (SK-MEL-2 melanoma): 28.6 µM | TGI (SK-MEL-2 melanoma): 89.2 µM | GI50 (LOX IMVI melanoma): 1.92 µM | TGI (LOX IMVI melanoma): 4.25 µM | GI50 (HOP-62 NSCLC): 22.4 µM | TGI (HOP-62 NSCLC): 57.5 µM | GI50 (HCT-15 colon): 15.1 µM | TGI (HCT-15 colon): 31.7 µM | GI50 (MDA-MB-231 breast): 15.1 µM | TGI (MDA-MB-231 breast): 38 µM | GI50 (SK-OV-3 ovarian): 0.116 µM | TGI (SK-OV-3 ovarian): 13.6 µM | GI50 (HL-60(TB) leukemia): 11.2 µM | TGI (HL-60(TB) leukemia): 55.6 µM | GI50 (OVCAR-4 ovarian): 14 µM | TGI (OVCAR-4 ovarian): 28.2 µM | GI50 (SNB-75 CNS): 24.7 µM | TGI (SNB-75 CNS): 52.9 µM | GI50 (SW-620 colon): 14.1 µM | TGI (SW-620 colon): 40.7 µM | GI50 (ACHN renal): 6.56 µM | TGI (ACHN renal): 19.6 µM | GI50 (HCC-2998 colon): 21 µM | TGI (HCC-2998 colon): 50.6 µM | GI50 (M14 melanoma): 15.2 µM | TGI (M14 melanoma): 32.1 µM | GI50 (A498 renal): 28.6 µM | TGI (A498 renal): 68.7 µM | GI50 (BT-549 breast): 23.4 µM | TGI (BT-549 breast): 55.8 µM | GI50 (UACC-257 melanoma): 19 µM | TGI (UACC-257 melanoma): 43.4 µM | GI50 (K-562 leukemia): 14.8 µM | TGI (K-562 leukemia): 42.4 µM | GI50 (MDA-MB-435): 17.3 µM | TGI (MDA-MB-435): 41.8 µM | GI50 (NCI-H522 lung): 5.01 µM | TGI (NCI-H522 lung): 18.8 µM | GI50 (HT29 colon): 29.9 µM | TGI (HT29 colon): 97.5 µM | GI50 (NCI/ADR-RES ovarian): 31.8 µM | TGI (NCI/ADR-RES ovarian): > 100 µM | GI50 (T-47D breast): 11.3 µM | TGI (T-47D breast): 26.2 µM | GI50 (CCRF-CEM leukemia): 14 µM | TGI (CCRF-CEM leukemia): 51.9 µM | GI50 (HOP-92 NSCLC): 24.7 µM | TGI (HOP-92 NSCLC): > 100 µM | GI50 (RXF 393 renal): 8.17 µM | TGI (RXF 393 renal): 20.9 µM | GI50 (NCI-H460 lung): 31 µM | TGI (NCI-H460 lung): > 100 µM
